According to patent US9464064B2, “HCV helicase inhibitors and methods of use thereof” (University of Kansas, priority 2011, dated 2016):

biological target: T1, NS3h_2a(JFH1) (Hepatitis C virus genotype 2a, UniProt Q99IB8); experiment: NS3 intrinsic protein fluorescence titration; format: binding, hepatitis C virus genotype 2a(JFH1); settings: corrected for inner filter effects
T1 construct: truncated C-terminally His-tagged NS3 proteins lacking the N-terminal protease, called NS3h; His-tag (C); made in house
T1 sequence (Q99IB8 1196-1661): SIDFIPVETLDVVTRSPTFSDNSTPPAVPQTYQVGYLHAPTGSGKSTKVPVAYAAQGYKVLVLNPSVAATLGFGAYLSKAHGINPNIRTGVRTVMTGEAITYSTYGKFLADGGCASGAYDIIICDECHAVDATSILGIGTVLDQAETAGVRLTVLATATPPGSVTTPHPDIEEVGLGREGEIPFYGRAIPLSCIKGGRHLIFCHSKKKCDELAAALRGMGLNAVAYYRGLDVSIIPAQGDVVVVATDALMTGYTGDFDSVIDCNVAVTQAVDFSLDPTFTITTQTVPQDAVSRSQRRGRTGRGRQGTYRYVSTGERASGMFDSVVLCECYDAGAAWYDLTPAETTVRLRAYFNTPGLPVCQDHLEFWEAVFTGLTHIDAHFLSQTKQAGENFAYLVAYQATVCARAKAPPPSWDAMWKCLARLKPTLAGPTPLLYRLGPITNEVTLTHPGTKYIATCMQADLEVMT
Procedure: Compound effects on NS3 intrinsic protein fluorescence were determined by adding aliquots of each compound (1 μl of a 1 mM solution in DMSO) sequentially to 50, 100, or 200 nM of NS3h_2a(JFH1), or 100 nM scNS4A-NS3 dissolved in 2 ml of 25 mM MOPS pH 7, 1.25 mM MgCl2, 0.01% (v/v) TWEEN 20 and 0.3 mM DTT. The titrations were performed in a stirred, temperature-controlled 1 cm cuvette at 23° C. in a Cary Eclipse Fluorescence Spectrophotometer (Agilent Technologies). Intrinsic protein fluorescence was recorded by exciting the sample at 280 nm and reading emission at 340 nm. Excitation and emission slit widths were set to 5 and 10 nm, respectively. All raw fluorescence data were corrected for sample dilution and inner filter effects using Equation 5: Fc=Fobs(V0+Vi)/V0*10^(Aex+Aem/2) (Equation 5) where Fc is corrected fluorescence, Fobs is observed fluorescence, V0 is initial sample volume, Vi is total volume of titrant added, Aex is the absorbance of the solution at the excitation wavelength (280 nm), and Aem is the absorbance of the solution at the emission wavelength (340 nm). Absorbance was calculated at each point in the titrations from extinction coefficients for each compound in titration buffer, which were calculated at 280 nm and 340 nm using four different compound concentrations. […] Fc=F0−(ΔFmax*[…]/(Kd^n+(C)^n)) (Equation 6) In equation 6, […], F0 is fluorescence in the absence of compound, ΔFmax is the maximum change in fluorescence, n is the Hill coefficient, and C is compound concentration.
To examine the direct interaction of the compounds with NS3, the effect of a select few compound on NS3 intrinsic protein fluorescence was analyzed. This technique has been widely used to monitor the interaction of NS3 with its nucleic acid ligands (Lam, et al. (2004) Nucleic Acids Res. 32:4060-4070; Levin & Patel (2002) J. Biol. Chem. 277:29377-29385; Preugschat, et al. (1996) J. Biol. Chem. 271:24449-24457) and other small molecules (Belon, et al. (2010) supra). […] Of note is the fact that, unlike compounds that simply compete for the nucleic acid binding site (e.g., (BIP)2B; Belon, et al. (2010) supra), the primuline derivatives bound NS3h cooperatively as evident from their sigmoid binding isotherms and Hill coefficients greater than one (Equation 6). When compounds were tested against scNS4A-NS3, binding again was detected and apparent affinity for the full-length complex was about 5 times higher than it was for NS3h.

Row | SMILES | interaction with NS3 (intrinsic protein fluorescence)
1 | Cc1ccc2nc(-c3ccc4nc(-c5ccc(NC(=O)c6ccc(C(F)(F)F)cc6)cc5)sc4c3)sc2c1S(=O)(=O)O [Compound 12, 6-methyl-2′-(4-(4-(trifluoromethyl)benzamido)phenyl)-[2,6′-bibenzo[d]thiazole]-7-sulfonic acid] | clear interaction
2 | Cc1ccc2nc(-c3ccc4nc(-c5ccc(NC(=O)c6cccc(Cl)c6)cc5)sc4c3)sc2c1S(=O)(=O)O [Compound 17, 2′-(4-(3-chlorobenzamido)phenyl)-6-methyl-[2,6′-bibenzo[d]thiazole]-7-sulfonic acid] | clear interaction
3 | Cc1ccc2nc(-c3ccc4nc(-c5ccc(NC(=O)c6cc(C(F)(F)F)cc(C(F)(F)F)c6)cc5)sc4c3)sc2c1S(=O)(=O)O [Compound 24, 2′-(4-(3,5-bis(trifluoromethyl)benzamido)phenyl)-6-methyl-[2,6′-bibenzo[d]thiazole]-7-sulfonic acid] | clear interaction
4 | Cc1ccc2nc(-c3ccc4nc(-c5ccc(NC(=O)c6ccc7ccccc7c6)cc5)sc4c3)sc2c1S(=O)(=O)O [Compound 33, 2′-(4-(2-naphthamido)phenyl)-6-methyl-[2,6′-bibenzo[d]thiazole]-7-sulfonic acid] | clear interaction

biological target: MBHA DNA substrate; experiment: Fluorescent intercalation displacement (FID) assay, ethidium bromide; format: binding; settings: FID; mean ± SD; read-out: DNA Binding (Ethidium Bromide) EC50
Procedure: Fluorescent intercalation displacement (FID) assays (Boger, et al. (2001) J. Am. Chem. Soc. 123:5878-5891) were used to measure the ability of a compound to bind the MBHA substrate. The concentration at which half the ethidium bromide is displaced (EC50) was determined using the different conditions as above to more closely mimic the conditions of a standard helicase assay. Each 100 μL reaction contained 25 mM MOPS pH 6.5, 0.16 μM MBHA DNA substrate (lacking Cy5 and IBQ-RQ modifications), 2 μM ethidium bromide, and various concentrations of test compound. Fluorescence of ethidium bromide was monitored using excitation and emission wavelengths of 545 and 595 nm, respectively, on a Cary Eclipse fluorescence spectrophotometer in white 96-well plates. The amount of ethidium bromide-DNA complex fluorescence was used to estimate the ability of compounds to bind DNA, and therefore displace the fluorescent intercalator (ethidium bromide).
In Equation 4, Fc is the fluorescence in the presence of the compound, F(−) is the average DMSO-only negative controls, and F(+) is the average positive controls (100 μM berenil). EC50 values were from a normalized dose-response curve.
These twelve hits were then subjected to a counterscreen designed to independently identify DNA binding compounds using a modified fluorescent intercalator displacement (FID) assay (Boger, et al. (2001) supra). The FID assay used ethidium bromide to judge a compound's ability to bind DNA and was based on the assumption that a DNA binding compound would displace a fluorescent DNA intercalating agent, leading to an observable decrease in observed fluorescence. Compounds were tested at 1.5 μM in the presence of the 25 base pair substrate used in the helicase assays.

Row | SMILES | EC50
5 | Cc1ccc2nc(-c3ccc4nc(-c5ccc(N)cc5)sc4c3)sc2c1S(=O)(=O)O [Compound P2a, 2′-(4-aminophenyl)-6-methyl-[2,6′-bibenzo[d]thiazole]-7-sulfonic acid] | > 100 µM
6 | Cc1ccc2nc(-c3ccc4nc(-c5ccc6nc(-c7ccc(N)cc7)sc6c5)sc4c3)sc2c1S(=O)(=O)O [Compound P3, 2″-(4-aminophenyl)-6-methyl-[2,6′:2′,6″-terbenzo[d]thiazole]-7-sulfonic acid] | 55 ± 20 µM
7 | Cc1ccc2nc(-c3ccc4nc(-c5ccc6nc(-c7ccc8nc(-c9ccc(N)cc9)sc8c7)sc6c5)sc4c3)sc2c1S(=O)(=O)O [Compound P4, 2′″-(4-aminophenyl)-6-methyl-[2,6′:2″,6′″-quaterbenzo[d]thiazole]-7-sulfonic acid] | 15 ± 3 µM
